In US12503687B2, “Therapeutic bacteriophage compositions” (priority 2017, dated 2025):
“And” between values parts separate entries of the source, which are not always exact repeats. Equal values may be shown once.

Test system: Staphylococcus aureus strain UNT144-3
Assay: S. aureus pneumonia model (neutropenic murine lung infection)
Type: in vivo, mice
Details: 100 mg/kg SC at 2 and 6 hrs post-infection; CFU assessed 24 hr
Experimental: The sensitivity of two S. aureus clinical isolates, UNT109-3 (NRS234, native valve endocarditis) and UNT144-3, that have been previously utilized in animal models of infection, was evaluated vs. the individual phage and the 4-phage panel. […] The virulence of the two strains was then evaluated in the murine lung infection model. Female Hsd:ICR(CD-1) mice (Harlan Laboratories, Houston, TX) were administered 150 and 100 mg/kg cyclophosphamide on day −4 and day −1 prior to infection to render them neutropenic. Groups of 5 mice were then anaesthetized by intraperitoneal (IP) injection of 0.15 mL of a mixture of ketamine HCl (100 mg/kg body weight) plus xylazine (10 mg/kg body weight). Once anaesthetized, mice were infected intranasally by placing drops on the external nares and allowing inhalation of the 50 μl inoculum. Twenty-four hours after infection, mice were euthanized by CO2 inhalation and lungs processed for bacterial titers. Bacterial counts were enumerated on Brain Heart Infusion agar (Difco™ Laboratories)+0.5% activated charcoal (Sigma-Aldrich) plates for ease of recovering and detecting S. aureus (Barr, J. G., et al., J. Clin. Pathol. (1987) 40:372-376). […]
Three phage panel treatment groups were evaluated for efficacy: 2×10^10 PFU/mL per phage, 2×10^9 PFU/mL per phage, and 2×10^8 PFU/mL per phage. […]

Compound: CN[C@H](CC(C)C)C(=O)N[C@H]1C(=O)N[C@@H](CC(N)=O)C(=O)N[C@H]2C(=O)N[C@H]3C(=O)N[C@H](C(=O)N[C@H](C(=O)O)c4cc(O)cc(O)c4-c4cc3ccc4O)[C@H](O)c3ccc(c(Cl)c3)Oc3cc2cc(c3O[C@@H]2O[C@H](CO)[C@@H](O)[C@H](O)[C@H]2O[C@H]2C[C@](C)(N)[C@H](O)[C@H](C)O2)Oc2ccc(cc2Cl)[C@H]1O [Vancomycin]
- Mean ± SD log10 CFU/Lung Pair: 5.55 log10 CFU/Lung Pair and 5.55 ± 1.1 log10 CFU/Lung Pair
